Values after ≈ are worked out from the molar mass of the structure shown.
Tests used:
Assay type in all cases: cell-based
[1] = system: drug resistant strains of Acinetobacter baumannii; assay: anti-drug resistant strains of Acinetobacter baumannii (MIC)
[2] = system: dengue virus (DENV); assay: anti-dengue virus activity (EC50)
[3] = system: Usutu virus (USUV); assay: anti-Usutu virus activity (inhibition rate); conditions: for inhibition at 11 µM / inhibition at 33 µM: Usutu virus; for inhibition at 33 µM: Drug concentration 33 μM
[4] = system: Zika virus (ZIKV); assay: anti-Zika virus activity (inhibition rate); conditions: for inhibition at 11 µM / inhibition at 33 µM: Zika virus; for inhibition at 33 µM: Drug concentration 33 μM
[5] = resistant strain of Acinetobacter baumannii no. 17
[6] = resistant strain of Acinetobacter baumannii no. 18
[7] = resistant strain of Acinetobacter baumannii no. 19
[8] = resistant strain of Acinetobacter baumannii no. 20

| Compound | inhibition at 11 µM ([3]; Drug concentration 11 μM) | inhibition at 33 µM [3] | inhibition at 11 µM ([4]; Drug concentration 11 μM) | inhibition at 33 µM [4] | other results |
| --- | --- | --- | --- | --- | --- |
| O=C(NNc1ccc(F)cc1)[C@@H]1Cc2ccccc2N1 [ZBM-5] |  |  |  |  | MIC [1, 5]: 2 µg/mL (≈ 7.37 µM); MIC [1, 6]: 2 µg/mL (≈ 7.37 µM); MIC [1, 7]: 1 µg/mL (≈ 3.69 µM); MIC [1, 8]: 2 µg/mL (≈ 7.37 µM) |
| O=C1[C@@H]2CCc3ccccc3N2[C@@H](Cc2ccc(O)cc2)N1Nc1ccccc1 [ZXD-127B] |  |  |  |  | EC50 [2]: 5.2 µM |
| CC(C)(C)[Si](C)(C)Oc1ccc(C2N(Nc3ccc([N+](=O)[O-])cc3)C(=O)C3CCc4ccccc4N32)cc1 (centres unmarked) [ZXD-132A] |  |  |  |  | EC50 [2]: 0.64 µM |
| O=C(Nc1ccc([N+](=O)[O-])cc1)C1CCc2ccccc2N1 (centres unmarked) [ZXD-53] | < 0% | < 0% | < 0% | 0 to 100% |  |
| O=C1[C@@H]2Cc3ccccc3N2[C@@H](c2ccc([N+](=O)[O-])cc2)N1Nc1ccccc1 [ZDL-19] | < 0% | > 100% | < 0% | 0 to 100% |  |
| O=C1C2CCc3ccccc3N2C(c2ccc(O)cc2)N1Nc1ccc([N+](=O)[O-])cc1 (centres unmarked) [ZXD-133A] |  |  |  |  | EC50 [2]: 19.5 µM |
| O=C(NNc1ccc(OCc2ccccc2)cc1)[C@@H]1Cc2ccccc2N1 [ZBM-6] |  |  |  |  | MIC [1, 5]: 2 µg/mL (≈ 5.56 µM); MIC [1, 6]: 4 µg/mL (≈ 11.1 µM); MIC [1, 7]: 2 µg/mL (≈ 5.56 µM); MIC [1, 8]: 4 µg/mL (≈ 11.1 µM) |
| O=C1[C@@H]2CCc3ccccc3N2[C@@H](c2ccccc2)N1Nc1ccc([N+](=O)[O-])cc1 [ZXD-106] |  |  |  |  | EC50 [2]: 5.2 µM |
| C=C(C)c1ccc(C2N(Nc3ccccc3)C(=O)C3CCc4ccccc4N32)cc1 (centres unmarked) [ZXD-89A] |  |  |  |  | EC50 [2]: 0.74 µM |
| C=C1CC[C@@H]2[C@]3(C)COC(C)(C)O[C@@H]3CC[C@@]2(C)[C@@H]1C[C@H]1N(Nc2ccc([N+](=O)[O-])cc2)C(=O)[C@@H]2Cc3ccccc3N21 [ZDL-43] | > 100% | > 100% | > 100% | > 100% |  |
| O=C1C2CCCC2C(c2ccccc2)N1c1ccc([N+](=O)[O-])cc1 (centres unmarked) [ZDL-61] | < 0% | > 100% | < 0% | 0 to 100% |  |
| O=C1C2CCc3ccccc3N2C(c2cc3ccccc3s2)N1Nc1ccccc1 (centres unmarked) [ZXD-178A] |  |  |  |  | Anti-USUV activity (inhibition rate) ([3]; Drug concentration 11 μM): + (+: Partial suppression); Anti-ZIKV activity (inhibition rate) ([4]; Drug concentration 11 μM): +++ (+++: Complete suppression) |
| O=C(NNc1ccc(F)cc1)c1cc2ccccc2[nH]1 [ZFD-44] |  |  |  |  | MIC [1, 5]: 0.5 µg/mL (≈ 1.86 µM); MIC [1, 6]: 1 µg/mL (≈ 3.71 µM); MIC [1, 7]: 1 µg/mL (≈ 3.71 µM); MIC [1, 8]: 1 µg/mL (≈ 3.71 µM) |
| O=C1[C@@H]2Cc3ccccc3N2[C@@H](c2ccc(O)cc2)N1NS(=O)(=O)c1ccc([N+](=O)[O-])cc1 [ZDL-39] | < 0% | < 0% | < 0% | 0 to 100% |  |
| O=C(NNc1ccccc1)c1c[nH]c2ccccc12 [ZFD-38] |  |  |  |  | MIC [1, 5]: 8 µg/mL (≈ 31.8 µM); MIC [1, 6]: 8 µg/mL (≈ 31.8 µM); MIC [1, 7]: 8 µg/mL (≈ 31.8 µM); MIC [1, 8]: 4 µg/mL (≈ 15.9 µM) |
| O=C(NNc1ccc(F)cc1)c1c[nH]c2ccccc12 [ZBM-20] |  |  |  |  | MIC [1, 5]: 0.5 µg/mL (≈ 1.86 µM); MIC [1, 6]: 1 µg/mL (≈ 3.71 µM); MIC [1, 7]: 0.5 µg/mL (≈ 1.86 µM); MIC [1, 8]: 0.5 µg/mL (≈ 1.86 µM) |
| O=C1[C@H]2CCc3ccccc3N2C(c2ccc(O)cc2)N1Nc1ccccc1 (some centres unmarked) [ZXD-86A] | < 0% | < 0% | < 0% | > 100% |  |
| COc1ccc(C2N(c3ccc([N+](=O)[O-])cc3)C(=O)[C@@H]3Cc4ccccc4CN23)cc1OC (some centres unmarked) [ZSD-12B] | < 0% | 0 to 100% | < 0% | < 0% |  |
| CC(C)(C)[Si](C)(C)Oc1ccc(C2N(Cc3ccccc3)C(=O)C3CCc4ccccc4N32)cc1 (centres unmarked) [ZXD-241B] | < 0% | > 100% | < 0% | > 100% |  |
| O=C(NNc1ccc(F)cc1)c1ccc[nH]1 [ZBM-21] |  |  |  |  | MIC [1, 5]: 0.5 µg/mL (≈ 2.28 µM); MIC [1, 6]: 0.5 µg/mL (≈ 2.28 µM); MIC [1, 7]: 0.5 µg/mL (≈ 2.28 µM); MIC [1, 8]: 0.5 µg/mL (≈ 2.28 µM) |
| CC(C)(C)[Si](C)(C)Oc1cccc(C2N(Nc3ccccc3)C(=O)C3CCc4ccccc4N32)c1 (centres unmarked) [ZXD-147B] | > 100% |  | > 100% |  |  |
| Nc1ccc(NNC(=O)[C@@H]2Cc3ccccc3N2)cc1 [ZBM-8] |  |  |  |  | MIC [1, 5]: 2 µg/mL (≈ 7.45 µM); MIC [1, 6]: 4 µg/mL (≈ 14.9 µM); MIC [1, 7]: 2 µg/mL (≈ 7.45 µM); MIC [1, 8]: 4 µg/mL (≈ 14.9 µM) |
| COc1cc(C2N(c3ccc([N+](=O)[O-])cc3)C(=O)[C@@H]3Cc4ccccc4CN23)ccc1O (some centres unmarked) [ZSD-8] | < 0% | < 0% | 0 to 100% | > 100% |  |
| O=C1[C@@H]2Cc3ccccc3N2[C@@H](c2ccc([N+](=O)[O-])cc2)N1NS(=O)(=O)c1ccc([N+](=O)[O-])cc1 [ZDL-38] | < 0% | 0 to 100% | < 0% | < 0% |  |

Source: US20220235057A1, “CYCLIC FORMYL AND CYCLIC KETONE COMPOUNDS, PREPARATION METHOD THEREFOR, AND PHARMACEUTICAL USE” (priority 2019, published 2022)
